This is an account of results in ChEMBL document CHEMBL5338766, “X-ray Crystal Structure-Guided Discovery of Novel Indole Analogues as Colchicine-Binding Site Tubulin Inhibitors with Immune-Potentiating and Antitumor Effects against Melanoma” (J Med Chem, 2023).

By CL/F is commonly meant the apparent clearance, not corrected for the fraction that reaches the circulation. One may read the IC50 as the point on the concentration scale where inhibition reaches its midpoint. The MRT last is the average time that molecules of a dose stay in the body.

Data set [1] concerns HepG2. The experiment in a line: Induction of apoptosis in human HepG2 cells assessed as late apoptotic cells at 1 nM incubated for 48 hrs by Annexin V-FITC/PI staining based flow cytometric analysis (reference value: 4.96 %). Type of data set: functional. In general terms: Flow cytometry measures light scatter and fluorescence of single cells or particles in a stream.
In data set [2] the test system is HepG2. The experiment in a line: Induction of apoptosis in human HepG2 cells assessed as early apoptotic cells at 0.5 nM incubated for 48 hrs by Annexin V-FITC/PI staining based flow cytometric analysis (reference value: 7.01 %). Type of data set: functional.
Data set [3] deals with B16-F10. The experiment in a line: Antitumor immunity in C57 mouse implanted with mouse B16-F10 cells assessed as increase in CD3+ CD8+ cytotoxic T cells in tumor at 2.5 mg/kg, ip administered every day for 14 days in the presence of NP19 by flow cytometric analysis (reference value: 0.340%). It counts as functional. To be noted: time 14 day.
Data set [4] in a line: Clearance in Sprague-Dawley rat at 20 mg/kg, po measured upto 12 hrs by UPLC-MS/ESI analysis. It counts as ADME, organism-based. As to conditions: in vivo.
In data set [5] the test system is B16-F10. The experiment in a line: Antiproliferative activity against mouse B16-F10 cells assessed as inhibition of cell proliferation incubated for 48 hrs by MTT assay. It counts as functional, cell-based. As to conditions: B16-F10, 48 h. On the technique in general: Tetrazolium assays rely on reduction of a dye to a coloured formazan, in cell work by metabolically active cells.

A short description of data set [6]: Toxicity in C57 mouse implanted with mouse B16-F10 cells assessed as pathological changes in heart at 2.5 mg/kg, ip administered every day for 14 days in the presence of NP19 by H&E staining based microscopic analysis. Type of data set: organism-based. As to conditions: in vivo, 336 h, time 14 day.
The nature of data set [7]: Acute toxicity in C57 mouse assessed as survival rate at 40.96 mg/kg, po administered daily for 14 days relative to control. As to conditions: in vivo, time 14 day, read-out: Activity. Type of data set: organism-based.
For data set [8], the system named is HepG2. The experiment in a line: Induction of apoptosis in human HepG2 cells assessed as late apoptotic cells at 0.5 nM incubated for 48 hrs by Annexin V-FITC/PI staining based flow cytometric analysis (reference value: 4.96 %). It counts as functional.
Data set [9] in a line: MRT (0 to t) in Sprague-Dawley rat at 20 mg/kg, po measured upto 12 hrs by UPLC-MS/ESI analysis. It counts as ADME, organism-based. As to conditions: in vivo.

For `COc1cc(-c2nccc3[nH]c(-c4cccc5c4ccn5C)nc23)cc(OC)c1OC`, the Activity is listed as 8.87% in the data set on HepG2 [1]; 8.59% in the data set on HepG2 [2]; 3.34% in the data set with B16-F10 [3]; “Non-Toxic” in data set [6]; 6.41% in the data set on HepG2 [8]. This molecule also showed an apparent clearance CL/F in data set [4] of 107 mL/min/kg. In the data set with B16-F10 [5], the IC50 was determined as 2 nM. Also, the survival at 336 h in data set [7] amounted to 100%. This molecule yielded an MRT last at 12 h in data set [9] of 3.06 h.
